Data reported in patent publication US20240342148A1, “METHODS OF TREATING FACIOSCAPULOHUMERAL MUSCULAR DYSTROPHY WITH LOSMAPIMOD” (Fulcrum Therapeutics, Inc., priority 2021, published 2024).

Tests used:
p38a/b MAPK pathway = assay: Target engagement in blood: pHSP27/HSP27total ELISA after ex vivo sorbitol stimulation; parameters: species or system human
Experimental: Blood samples for target engagement were collected at D1 and Wk16 or Wk36, at the same pre- and post-dose time points as PK samples.
Blood samples for measurement of total heat shock protein 27 (HSP27total) and phosphorylated heat shock protein 27 (pHSP27) were collected into EDTA-containing tubes. Two mL of whole blood was stimulated ex vivo with sorbitol for 30 minutes at room temperature to induce phosphorylation of HSP27 as a measure of p38a/b MAPK activity. Sorbitol stimulation activates the p38a/b MAPK pathway in blood and allows for more robust detection of inhibition of the p38a/b MAPK pathway by losmapimod. Subsequently, samples were lysed on ice and lysates frozen at −80° C. pHSP27 and HSP27total were measured by a validated enzyme-linked immunosorbent assay method (Cambridge Biomedical Inc., Boston, MA, USA and Immunologix, Tampa, FL, USA). Inter- and intra-assay precision for both pHSP27 and HSP27total met the preapproved criteria of <25% CV having been run in 5 replicates with the LLOQ established for pHSP27 at 20.7 ng/ml and ULOQ at 470.1 ng/ml and the LLOQ established for HSP27total at 105.2 ng/ml and ULOQ at 2168.1 ng/mL.

subjects with FSHD [1] = assay: Reachable workspace, Open Label Study, exploratory annualized analysis; format: in vivo, human; conditions: with and without weights
Description: In the Open Label Study, reachable workspace (RWS) with and without weights has also been evaluated. FIG. 27 provides exploratory annualized percentage changes of RWS from baseline of patients participating in the study.

subjects with FSHD [2] = assay: WB-MSK MRI composite scores (MFI, MFF, LMV); format: in vivo, human
Description: The images were acquired in five different sections. The rotator cuff was imaged using a neck coil, torso and legs using anterior surface coils and integrated table coils, and the upper extremities using a surface and table coils, after the patient was repositioned such that the extremity was in the center of the MRI scanner. T1-weighted Dixon-images of 18 muscles bilaterally, 36 total, were acquired and water and fat images were reconstructed using the scanner built-in phase-sensitive reconstruction (Siemens: Dixon-Vibe; Philips: mDixon). Three different measures were calculated for each muscle. The muscle fat fraction (MFF) is the total fat fraction inside the muscle fascia. The muscle fat infiltration (MFI) represents the diffuse fat infiltration in the muscle tissue and is defined as the fat fraction of the muscle voxels that contain <50% fat. Therefore, MFI measures the MFF for muscle tissue that is not end-stage. The lean muscle volume (LMV) represents the total amount of functional muscle tissue and is measured by removing all fat within the muscle volume. Each muscle was categorized based on these measures and supported by prior literature as normal appearing (Category A, MFI<0.10; MFF<0.50), intermediate (Category B, MFI≥0.10; MFF<0.50), and late-stage (Category C, MFF≥0.50). Two composite scores were used to assess the treatment efficacy and correlation with relevant clinical outcome assessments. The treatment efficacy composite score includes only those muscles identified as normal appearing or at high risk for progression (Category A or B muscles) at baseline that were measurable at both observation timepoints, having no signal quality issues. The regional composite scores for correlations are composed of all muscles that were involved in the specific functional assessment of interest regardless of their categorization (FIG. 2). The scores were derived by scientists at the MRI Service Provider (AMRA Medical Inc.) in a blinded fashion, with no access to treatment assignment information. Measurements for muscles with major quality issues, (i.e., muscles with missing values), were imputed. Late-stage muscles were not included in the analysis as these contain high fat fraction which makes them challenging to quantify accurately, and likely are already not functional. A mixed-effects model for repeated measures (MMRM) was used to analyze the change from baseline in each composite MRI score (MFFtotal, LMVtotal, and MFItotal), with repeat number category, treatment group, visit, and treatment-by-visit interactions as fixed effects and baseline value of the parameter as a covariate. […]

Cc1c(F)cc(C(=O)NC2CC2)cc1-c1ccc(C(=O)NCC(C)(C)C)cn1 [losmapimod, 6-(5-cyclopropylcarbamoyl-3-fluoro-2-methyl-phenyl)-N-(2,2-dimethylpropyl-)-nicotinamide]
Reduction of pHSP27/HSP27total compared to placebo at Cmax (p38a/b MAPK pathway): 48.0-70.2%
Annualized RWS increase from baseline, Q1 and Q3 (largest increases) (subjects with FSHD [1]): 7-17%
MFI or MFF in normal appearing muscles at baseline (A muscles), post-hoc (subjects with FSHD [2]; A muscles, compared to placebo): little or no accumulation of fat
LMV vs placebo (subjects with FSHD [2]; B muscles): no difference
MFF fat replacement vs placebo (subjects with FSHD [2]; B muscles): nonsignificant reduction
MFI efficacy composite vs placebo (subjects with FSHD [2]; muscles at high risk of progression (B muscles), p=0.01): significantly less fat infiltration
